In publication PMC9643456, “Matching amino acids membrane preference profile to improve activity of antimicrobial peptides” (Communications Biology, 2022):
Ends that are not written are not given here.

How the values were obtained:
[1] = test system: A. baumannii strains; assay: microbe, parasite or virus in culture
Description: Twenty-six A. baumannii strains were clinically isolated and gifted to us by the Kyungpook National University School of Medicine. One A. baumannii strain (ATCC 17978) was purchased and gifted to us by Kyungpook National University School of Medicine. One A. baumannii strain and 10 K. pneumoniae strains (NCCP) were purchased from the National Culture Collection for Pathogens.
To assess antimicrobial activity, the MIC50 and MIC90 were measured using broth microdilution following CLSI guidelines. […] Each experiment was performed in triplicate. Meropenem (Sigma, Darmstadt, Germany) and colistin were used as control antibiotics. Cation-adjusted Mueller–Hinton broth (CAMHB) (Becton, Dickinson and Company, Franklin Lakes, USA) with supplied calcium (50 mg/L) and magnesium (10 mg/L) was used for the CLSI-test condition. Bacteria in midlog phase and peptides were separately diluted in CAMHB. The bacteria and peptide solutions were then mixed in 96-well polyethylene plates (SPL, Gyeonggi-do, Korea) and incubated for 18 h at 37 °C. The final concentration for bacteria was 5 × 10^5 CFU/ml. […] The MIC was defined to be the lowest concentration of peptide without visible turbidity by comparing with control antibiotics with the unaided eye. […] Each experiment was performed in triplicate. MICs in albumin and acetic acid solutions were measured using the same protocol but with 0.2% bovine serum albumin (Bovogen, Keilor, Australia), 0.01% acetic acid (Merck, New Jersey, USA), and CAMHB with both calcium and magnesium. In addition, MICs used in the antibiotic resistance acquisition test, the outer–inner membrane permeation test, and the transmembrane potential test and for FE-SEM were individually determined. The final bacterial concentrations used were as follows: for resistance acquisition, optical density (OD) 0.01; for outer–inner membrane permeability assays (LB), OD 0.1; for the transmembrane potential test, 1 × 10^8 CFU/ml (OD 0.171); […]. Inhibitory activity unidentifiable by direct observation was determined by counting the CFUs. Each experiment was performed at least twice.

[2] = Maximum soluble concentration / turbidity; type: physicochemical; conditions: lyophilized peptide reconstructed in PBS at 200-6.25 μM; visible turbidity checked every 12 h for 5 days; at least twice
Description: Supplementary Methods Bacteria preparation, Antimicrobial peptides preparation, Minimal-inhibitory-concentration measurements, Hemolysis-activity measurements, Tryptophan fluorescence measurements, Isothermal titration calorimetry measurements, Bacteria membrane ion permeation measurements, Outer-inner membrane permeation, Field-emission scanning electron microscopy and Antimicrobial kinetics were performed as described in Materials and Methods. Liposome (LUV) preparation. Bacterial-membrane-mimic DMPC/DMPG unilamellar vesicles (LUV) and mammalian- membrane-mimic PC/cholesterol vesicles with 100-nm diameters were prepared by extrusion. LiposoFast Liposome Factory Basic unit with stabilizer (Avestin, Ottawa, Canada) was used to extrude liposomes 50 times through a polycarbonate membrane filter (pore diameter, 100 nm; filter diameter, 0.75 inches) (Avestin). […] rac-(1-glycerol)) (sodium salt) (DMPG) (Avanti, Alabama, USA); 1,2-Dimyristoyl-sn-glycero-3-phosphocholine (DMPC) (Avanti); and cholesterol (Sigma, Darmstadt, Germany) were used. For circular dichroism, isothermal titration calorimetry, tryptophan fluorescence, and dynamic light scattering experiments, liposomes were reconstructed and resuspendedwith phosphate-buffered saline (PBS; Welgene Inc, Gyeongsangbuk-do, Korea). For calcein-permeation tests, liposomes were reconstructed with calcein solutions (80 mM, 40 mM, 30 mM, 20 mM, and 10 mM) (Sigma, Darmstadt, Germany), purified with Sephadex-G50 columns (Pharmacia biotech, Stockholm, Sweden), and resuspended with PBS. Maximum-soluble -concentration measurements. […] turbidity with PBS. The lowest concentration of peptide without visible turbidity was determined to be the maximu m soluble concentration. Each experiment was performed at least twice. Circular dichroism (CD) spectrum. DMPC/PG -liposome, PC/cholesterol -liposome, and peptide stock solutions were diluted in PBS. For circular dichroism, PBS with neither liposome nor peptides was also prepared. Liposomes and peptides were mixed to […] Samples were transferred into type J/1 cuvettes (Jasco, Tokyo, Japan). Cuvettes were placed into the J -815 circular -dichroism spectrometer (Jasco, Tokyo, Japan). Measurement parameters were as follows: wavelength, 190 -260 nm; data pitch, 0.2 nm; bandwidth, 1.00 nm; […] Each experiment was performed in triplicate. Data below 197 nm was not analyzed because o f experimental difficulties in obtaining those spectra. Each experiment was performed at least twice. Artificial membrane calcein permeation measurements. Calcein fluorescence was used to measure peptide -induced liposome permeation. Calcein solutions (10 mM, 20 mM, or 60 mM) containing PC/PG liposomes and peptides were diluted in PBS ( ×1, ×2, ×3, ×8). […] Liposome solutions (180 μl) were transferred to wells of black, clear -bottomed 96 -well plates (Costar, New York, USA). Peptide […] Liposome-containing plates and peptide -containing plates were inserted into a Flexstation 3 Multi -Mode Microplate Reader (Molecular Devices, California, USA). Peptide solutions (20 μl) were transferred and mixed with liposome solution automatical ly after 30 sec. […] Measurement parameters were as follows: excitation, 490 nm; emission, 520 nm; temperature, 37 °C. […] was transferred and mixed with the liposome -peptide solu tions automatically after 300 sec to acquire fluorescence at maximum leakage. […] Fluorescence measured between 0 -300 sec after addition of 0 μg/ml peptide was considered the baseline. Each experiment was performed at least twice. Dynamic light scattering (DLS) measurements. Dynamic light scattering was used to measure peptide -induced liposome volume changes. PC/PG -liposome stock solutions and peptides were resuspended in PBS. Liposomes and peptides were mixed to […]

In the case of Colistin, the MIC50 ([1]; 30 A. baumannii strains, including 27 carbapenem-resistant, CLSI broth microdilution) is reported as 0.63 µM, the “MIC, A. baumannii ATCC 17978” value ([1]; CLSI) is reported as 0.63 µM and the “MIC, A. baumannii ATCC BBA 1605” value ([1]; CLSI) is reported as 0.63 µM. For the same substance, the “MIC, A. baumannii Isolated strain 1” value ([1]; CLSI) was 0.63 µM, the “MIC, A. baumannii Isolated strain 3” value ([1]; CLSI) was greater than 20 µM and the “MIC, A. baumannii Isolated strain 6” value ([1]; CLSI) was 2.5 µM. For the same substance, the “MIC, A. baumannii Isolated strain 10” value ([1]; CLSI) was 2.5 µM, the “MIC, A. baumannii Isolated strain 14” value ([1]; CLSI) was 1.25 µM and the “MIC, A. baumannii Isolated strain 15” value ([1]; CLSI) was 0.63 µM. For the same substance, the “MIC, A. baumannii Isolated strain 16” value ([1]; CLSI) was less than 0.31 µM, the “MIC, A. baumannii Isolated strain 19” value ([1]; CLSI) was less than 0.31 µM and the “MIC, A. baumannii Isolated strain 22” value ([1]; CLSI) was 1.25 µM. The “MIC, A. baumannii Isolated strain 39” value ([1]; CLSI) was less than 0.31 µM, the “MIC, A. baumannii Isolated strain 44” value ([1]; CLSI) was 1.25 µM and the “MIC, A. baumannii Isolated strain 66” value ([1]; CLSI) was 1.25 µM. The “MIC, A. baumannii Isolated strain 68” value ([1]; CLSI) was 0.63 µM, the “MIC, A. baumannii Isolated strain 69” value ([1]; CLSI) was 1.25 µM and the “MIC, A. baumannii Isolated strain 71” value ([1]; CLSI) was 1.25 µM. For the same substance, the “MIC, A. baumannii Isolated strain 76” value ([1]; CLSI) was less than 0.31 µM, the “MIC, A. baumannii Isolated strain 80” value ([1]; CLSI) was 0.63 µM and the “MIC, A. baumannii Isolated strain 82” value ([1]; CLSI) was 0.63 µM. For the same substance, the “MIC, A. baumannii Isolated strain 86” value ([1]; CLSI) was 0.63 µM, the “MIC, A. baumannii Isolated strain 89” value ([1]; CLSI) was 2.5 µM and the “MIC, A. baumannii Isolated strain 102” value ([1]; CLSI) was 0.63 µM. The “MIC, A. baumannii Isolated strain 127” value ([1]; CLSI) was 0.63 µM, the “MIC, A. baumannii Isolated strain 141” value ([1]; CLSI) was less than 0.31 µM and the “MIC, A. baumannii Isolated strain 144” value ([1]; CLSI) was 0.63 µM. The “MIC, A. baumannii Isolated strain 147” value ([1]; CLSI) was 5 µM, the “MIC, A. baumannii Isolated strain 152” value ([1]; CLSI) was 1.25 µM and the “MIC, A. baumannii KCCM 40203” value ([1]; CLSI) was 0.63 µM. The “MIC, A. baumannii NCCP 14654” value ([1]; CLSI) was 1.25 µM, the “Number of A. baumannii strains at MIC (μM) 0.63” value ([1]; of 30 strains) was 12 and the “Number of A. baumannii strains at MIC (μM) 1.25” value ([1]; of 30 strains) was 8. The “Number of A. baumannii strains at MIC (μM) 2.5” value ([1]; of 30 strains) was 3, the “Number of A. baumannii strains at MIC (μM) 5” value ([1]; of 30 strains) was 1 and the “Number of A. baumannii strains at MIC (μM) 10” value ([1]; of 30 strains) was 0. The “Number of A. baumannii strains at MIC (μM) ≤0.31” value ([1]; of 30 strains) was 5 and the “Number of A. baumannii strains at MIC (μM) ≥20” value ([1]; of 30 strains) was 1.

For RLWWRWIVR-NH2 [HLWCopW29-4], the “Maximum soluble concentration in PBS” value [2] was greater than 200 µM.
